According to patent US10676433B2, “Indole derivatives and their use in neurodegenerative diseases” (Merck Patent GmbH, priority 2014, dated 2020):

Target: human P2X7 receptor (Homo sapiens (Human), UniProt Q99572)
Assay: Pore permeation assay (YO PRO dye uptake)
Format: cell-based
Details: HEK293 transfected with human P2X7 receptor, BzATP 10 uM, read-out: hP2X7 IC50
Description: Agonist-induced pore formation was determined by measuring cellular uptake of YO PRO fluorescence dye in HEK293 transfected with human P2X7 receptor. A HEK293 cell over expressing human P2X7 was harvested using HQTase reagent to detach the cells from T75 cm flask. The harvested cells are centrifuged @ 1200 rpm for 5 min at room temperature. The viability of cells was determined by Trypan blue dye and the cells are plated @ 10,000 cell/well in 50 ul volume in a 384W BD Poly lysine coated plate and incubated overnight at 37 C. […] The plate was centrifuged at 1000 rpm for 5 seconds and incubated at room temperature for 30 minutes. The uptake of YO PRO dye into the cells was measured using Envision Fluorescence plate reader instrument (Perkin Elmer).

Chain of human P2X7 receptor (Q99572 whole entry): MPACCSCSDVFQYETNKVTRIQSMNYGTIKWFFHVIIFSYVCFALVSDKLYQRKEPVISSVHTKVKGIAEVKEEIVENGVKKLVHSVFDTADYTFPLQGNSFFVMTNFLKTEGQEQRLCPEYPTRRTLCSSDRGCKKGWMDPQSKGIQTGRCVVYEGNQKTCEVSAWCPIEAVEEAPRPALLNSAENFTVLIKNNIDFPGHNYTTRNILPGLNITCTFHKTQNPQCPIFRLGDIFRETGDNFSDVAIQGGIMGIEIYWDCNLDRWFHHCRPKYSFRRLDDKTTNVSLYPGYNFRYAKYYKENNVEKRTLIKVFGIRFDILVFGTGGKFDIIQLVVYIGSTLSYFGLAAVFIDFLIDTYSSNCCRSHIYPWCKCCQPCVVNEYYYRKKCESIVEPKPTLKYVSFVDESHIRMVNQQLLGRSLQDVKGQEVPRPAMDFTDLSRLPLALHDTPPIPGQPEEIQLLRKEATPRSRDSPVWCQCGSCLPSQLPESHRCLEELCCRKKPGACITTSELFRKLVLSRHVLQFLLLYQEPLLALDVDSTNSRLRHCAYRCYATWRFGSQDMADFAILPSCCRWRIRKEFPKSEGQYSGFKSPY

Molecule: 4-Chloro-1-oxetan-3-yl-1H-indole-3-carboxylic acid (2,2-difluoro-ethyl)-amide [Compound 76]
- IC50: > 1000 nM

Molecule: CC(O)(CNC(=O)c1cn(C2CCOC2)c2cccc(Cl)c12)C1CCCC1 (centres unmarked) [Compound 102, 4-Chloro-1-(tetrahydro-furan-3-yl)-1H-indole-3-carboxylic acid (2-cyclopentyl-2-hydroxy-propyl)-amide]
- IC50: > 1000 nM
